Results reported in patent US20250257364A1, “RNA-GUIDED DNA TRANSPOSITION” (priority 2024, published 2025).

What was measured:
[1] = system: E. coli folA CRISPRtOE strains vs lacZ controls
Method: (§1) CRISPRtOE library growth experiments. Competition experiment growth. The E. coli CRISPRtOE murA and folA libraries were mixed in equal volume with the LP-lacZ library: 50 μl frozen stock (OD600=10) of each library (murA+LP-lacZ and folA+LP-lacZ) into 100 ml LB (starting OD600=0.01) in a 500 ml flask and incubated shaking at 37° C. until OD600=0.2 (˜2.5 h) (timepoint=T0) to revive the cells. […] (T1). These cultures were serially diluted back to OD600=0.01 into fresh tubes containing the same media and incubated again with shaking for 18 h at 37° C. (T2) for a total of ˜10-15 doublings. Cells were pelleted from 15 ml of culture in duplicate at each time point T0 and 1 ml of culture at timepoints T1 and T2 and stored at −20° C.
(§2) To test for overexpression phenotypes, the folA or murA library was mixed 50:50 with the lacZ control library and cells were grown in the presence/absence of TMP or FOS, respectively.

[2] = system: E. coli folA CRISPRtOE isolates vs parent strains; details: TMP 0.04-20 μg/ml, MHB, 20 h
Method: MIC assays. The minimal inhibitory concentration (MIC) of E. coli folA and murA CRISPRtOE isolates was determined by either growth in a microtiter plate or by disc diffusion assays, respectively. For the broth microdilution assay, CRISPRtOE isolates and WT controls were grown to saturation from an isolated colony and serially diluted to OD600=0.003) and the CRISPRtOE library was diluted from a glycerol stock to the same density. […] E. coli folA CRISPRtOE isolates, the folA CRISPRtOE library, a lacZ CRISPRtOE control, and WT cultures and the media containing antibiotic were mixed in equal proportions and incubated 20 h shaking at 37° C. prior to cell density (OD600) determination in a microplate reader. For the MIC strip assays, E. coli folA or murA CRISPRtOE isolates, a lacZ CRISPRtOE control, and WT cultures were diluted to OD600=0.3 and 300 μl was spread on a 100 mm MH agar plate and dried in a laminar flow cabinet. When dry, MIC strips (Liofilchem, Italy; 920371 (TMP 0.002-32 mg/L) and 920791(FOS 0.064-1024 mg/L)) were applied to the plate and 10 μl serially diluted antibiotics were applied to the discs. Plates were incubated at 37° C. for 18 h. Broth microdilution assays were repeated 3 times and MIC test strip assays twice.

[3] = system: E. coli whole genome CRISPRtOE library (promoter H)
Method: Whole genome experiment growth. The E. coli CRISPRtOE whole genome libraries with no promoter (sJMP10704) or promoter H (sJMP10705) were revived by dilution of 100 μl frozen stock (OD600=15) into 100 ml LB (starting OD600=0.015) and incubation in 500 ml flasks shaking at 37° C. until OD600=0.2 (˜2.5 h) (timepoint=TO). […] (T1). These cultures were serially diluted back to OD600=0.01 into fresh tubes containing the same media and incubated again with shaking for 18 h at 37° C. (T2) for a total of ˜10-15 doublings. Cells were pelleted from 15 ml of culture in duplicate at time point TO and 1 ml of culture at timepoints T1 and T2 and stored at −20° C.
A custom Python script (counting_spacers.py) was used to determine the number of times each spacer appeared in the filtered alignment file. […] Pairwise comparison of spacer counts in DMSO and TMP treatment samples was performed using edgeR^70 and a custom Rscript (comparison_of_spacer_counts_edgeR.R). The results were plotted using a custom Rscripts (plotting_scatter_plot.R, barplot_with_points.R, scatter_plot_commands.R). […]
To test the ability of CRISPRtOE to identify antibiotic-relevant gene phenotypes at the genome-scale, the libraries were grown in the presence or absence of a sub-lethal concentration of TMP and relative strain abundance was measured.

[4] = system: E. coli murA CRISPRtOE strains vs lacZ controls; assay: CRISPRtOE pooled library competitive growth assay with fosfomycin; format: cell-based, E. coli K-12; details: fosfomycin 0.4 μg/ml, ~10-15 doublings
Method: as §1, §2

lacZ = assay: CRISPRt disruption of lacZ, blue-white screening of transconjugants; format: cell-based, E. coli K-12; details: lacZ targeted
Method: Transfer of the CRISPRt/CRISPRtOE system to the bacterial chromosome. CRISPRt and CRISPRtOE strains were constructed by triparental mating of two E. coli donor strains-one with the pCRISPRt-H plasmid encoding Cas678-TniQ-TnsABC and another with the pCRISPRt-T or pCtOE plasmid containing the transposon with the guide RNA and antibiotic resistance- and a recipient strain (Table 1). All conjugations and selection post-conjugation were carried out at 30° C. regardless of the normal incubation temperature for the organism. Isolated donor and recipient strains were struck out on plates with the appropriate media and antibiotic (if relevant) concentrations. Colonies were resuspended from plates into the growth medium used for the recipient to a density of OD600=9. […]
For lacZ targeted CRISPRt, the color of 80 individual colonies was determined by patching on LB agar plates containing X-gal (20 μg/ml). […]
To test the precision of CRISPRt, both endogenous (lacZ) and heterologous (gfp) reporter genes were targeted for disruption in E. coli K-12 (data not shown). […] Next, targeting on the genome scale was determined by sequencing genomic DNA at the Tn6677 transposon junction (Tn-seq) using Illumina®-based Next Generation Sequencing (NGS). […]

E. coli genome = assay: Tn-seq of CRISPRt transposon insertion sites (specificity, orientation); format: cell-based, E. coli K-12; details: insertions ~49 bp downstream of protospacer
Description: FIGS. 1a-e illustrate a mobilizable, selectable, dual-plasmid system for CRISPR-guided transposition. 1a. Schematic of a targeted transposition gene knockout (CRISPRt) and gene overexpression (CRISPRtOE) system optimized for functional genomics. 1b. Schematic of mechanism of Vibrio cholera Type I-F CRISPR-associated transposon (Vc CAST) system. 1c. Schematic of strain construction using the CRISPRt targeted transposition system. Plasmids have pir-dependent origins of replication preventing replication in the bacterial recipient. […] Inside the recipient cell, the transposon (flanked in yellow) is inserted onto the chromosome at a site determined by the sequence of the guide RNA. […] Specificity of CRISPRt disruption of gfp and lacZ in E. coli measured by Tnseq. Mapping of location of transposon insertion sites to the E. coli genome after CRISPRt targeted transposition with gfp1 guide (226,671 reads) or LZ1 guide (216,801 reads). […]
Tnseq analysis of CRISPRt/CRISPRtOE constructs. […] PCR products were spin-purified (eluted in 15 μl) and quantified fluorometrically. […] Briefly, PCR products were amplified with nested primers containing i5 and i7 indexes and Illumina® TruSeq™ adapters followed by bead cleanup, quantification, pooling and running on a NovaSeq X Plus (150 bp paired end reads) or MiSeq (250 bp paired end reads). […]

COc1cc(Cc2cnc(N)nc2N)cc(OC)c1OC [TMP, trimethoprim]
increase in abundance of folA OE strains relative to lacZ controls [1]: 22 fold
shift in MIC between parent strains and folA CRISPRtOE isolates [2]: 15 to 30 fold
enrichment of folA-associated spacers [3]: > 1000 fold

C[C@@H]1O[C@@H]1P(=O)(O)O [FOS, fosfomycin]
increase in abundance of murA OE strains relative to lacZ controls [4]: 52 fold

lacZ: gRNA spacer LZ1 (Petassi, PMID: 33271061), SEQ ID NO: 16, targeting lacZ (guide CAACTTAATCGCCTTGCAGCACATCCCCCTTT; chemistry not given here)
transconjugants showing the expected disruption phenotype (lacZ): 100%
insertions in R-L orientation (E. coli genome): 74.1%
